Experimental data: PubChem BioAssay (NCI)
Where “and” joins values, the source holds several entries; their conditions need not be identical. Identical values can stand only once.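 Test compounds were applied to cells in 96-well plates for 48 hours at 5 doses. At the GI50, growth is halved. Definition used: TGI = concentration required for complete inhibition of growth.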

Tests used:
Test in all cases: DTP human tumour cell line panel, 48 h
[1] = system: K-562 leukemia
[2] = system: SK-OV-3 ovarian
[3] = system: EKVX NSCLC
[4] = system: HT29 colon
[5] = system: OVCAR-3 ovarian
[6] = system: HOP-92 NSCLC
[7] = system: SW-620 colon
[8] = system: NCI-H23 lung
[9] = system: HOP-62 NSCLC
[10] = system: MDA-MB-435

Row | SMILES | TGI [1] | TGI [2] | TGI [3] | TGI [4] | TGI [5] | TGI [6] | TGI [7] | TGI [8] | TGI [9] | TGI [10] | GI50 [1] | GI50 [2] | GI50 [3] | GI50 [4] | GI50 [5] | GI50 [6] | GI50 [7] | GI50 [8] | GI50 [9] | GI50 [10]
1 | O=C1CCC(c2ccccc2)(c2ccccc2)CC1 | > 100 µM | > 100 µM | > 100 µM | > 100 µM | > 100 µM | > 100 µM | > 100 µM | > 100 µM | > 100 µM | > 100 µM | – | – | – | – | – | – | – | – | – | –
2 | O=C(/C=C/c1cccs1)Nc1ncc(Cc2ccccc2F)s1 | > 100 µM | > 100 µM | > 100 µM | > 100 µM | 0.671 µM | > 100 µM | > 100 µM | > 100 µM | > 100 µM | 0.113 µM | 0.0749 µM | 0.477 µM | 0.412 µM | 0.21 µM | 0.216 µM | 1.39 µM | 0.159 µM | 2.78 µM | 0.407 µM | 0.0312 µM
3 | Nc1ccccc1C#Cc1ccccc1C#CCCCCO | 58.3 µM | > 100 µM | 96.7 µM | 31.1 µM | 63.4 µM | 80.4 µM | 77.3 µM | 58.1 µM | 33.5 µM | 53.9 µM | 19.1 µM | > 100 µM | 29.1 µM | 15.9 µM | 25.7 µM | 28.1 µM | 25.1 µM | 24.4 µM | 10.9 µM | 10.3 µM
4 | O=C(O)CCN1C(=O)/C(=C/C(Cl)=C/c2ccccc2)SC1=S | 6.26 µM | 20.1 µM | 14.2 µM | 5.88 µM | 7.01 µM | 12.5 µM | 6.32 µM | 4.63 µM | 13.3 µM | 11.6 µM | 1.88 µM | 7.54 µM | 3.75 µM | 2.57 µM | 2.41 µM | 4.35 µM | 2.3 µM | 1.96 µM | 3.74 µM | 2.95 µM
5 | O=C(O)C(O)C(O)C1[O][Sb][O]C1CO (stereo not drawn) | > 100 µM | > 100 µM | > 100 µM | > 100 µM | > 100 µM | > 100 µM | > 100 µM | > 100 µM | > 100 µM | > 100 µM | > 100 µM | > 100 µM | > 100 µM | > 100 µM | > 100 µM | > 100 µM | > 100 µM | > 100 µM | > 100 µM | > 100 µM
6 | C1CCN2CC34CC(CC5CCCN(C6CCCC3N6)C54)C2C1 (stereo not drawn) | > 100 µM | > 100 µM | > 100 µM | > 100 µM | > 100 µM | > 100 µM | > 100 µM | > 100 µM | > 100 µM | > 100 µM | – | – | – | – | – | – | – | – | – | –
7 | C[C@H]1CC(=O)[C@@]2(O)C#C/C=C\C#C[C@@H]3Nc4c(cc(O)c5c4C(=O)c4ccccc4C5=O)[C@]24O[C@]314 | 0.233 µM and 0.605 µM | 0.0954 µM | 0.885 µM and 1.4 µM | > 25 µM | > 25 µM | 0.336 µM | 0.306 µM and 0.337 µM | 0.0592 µM and 0.101 µM | 0.00698 µM and 0.00625 µM | 0.219 µM and 0.262 µM | – | – | 0.292 µM | 0.0253 µM | – | – | 0.0059 µM | 0.00359 µM | 0.0025 µM | 0.0196 µM
8 | C=C(C)[C@@H]1CC[C@]2(C#N)CC[C@]3(C)[C@H](CC[C@@H]4[C@@]5(C)CCCNC(C)(C)[C@@H]5CC[C@]43C)[C@@H]12 | 10.5 µM | 25.4 µM | 3.83 µM | 3.1 µM | 3.38 µM | 11.3 µM | 3.42 µM | 10.9 µM | 3.29 µM | 3.78 µM | 2.09 µM | 11.1 µM | 1.79 µM | 1.64 µM | 1.75 µM | 2.69 µM | 1.77 µM | 3.32 µM | 1.65 µM | 1.92 µM
9 | CCN(CC)c1ccc(/C=N\NC(=O)c2cccc(Nc3ccnc(C(F)(F)F)c3)c2)c(O)c1 | > 100 µM | > 100 µM | 3.8 µM | 7.26 µM | > 100 µM | > 100 µM | > 100 µM | > 100 µM | 1.96 µM | > 24.1 µM | 0.374 µM | 0.499 µM | 0.219 µM | 0.301 µM | 0.271 µM | 1.35 µM | 0.366 µM | 0.575 µM | 0.184 µM | 0.412 µM
10 | C=C1C(=O)O[C@H]2[C@H](OC(C)=O)[C@@H](C)CCC/C(C)=C/CC[C@]3(CO3)[C@H](O)C[C@@H]12 | 5.06 µM | 21.7 µM | 17.3 µM | 11.5 µM | 5.69 µM | 6.75 µM | 10.7 µM | 18.3 µM | – | 7.99 µM | 1.85 µM | 9.12 µM | 4.52 µM | 3.23 µM | 2.36 µM | 2.11 µM | 3.24 µM | 4.87 µM | – | 3.01 µM
11 | Fc1cc(Nc2ccc3c(OCCCN4CCOCC4)cccc3n2)ccc1Cl | 4.38 µM | 4.72 µM | 6.2 µM | 3 µM | 10.1 µM | 6.26 µM | – | 5.38 µM | 3.43 µM | 4.83 µM | 1.91 µM | 2.24 µM | 2.37 µM | 1.53 µM | 3.08 µM | 2.4 µM | – | 2.21 µM | 1.71 µM | 2.05 µM
12 | CCOc1ccc(N2C(N)=NC(N)=NC2(C)C)cc1 | > 100 µM | > 100 µM | – | > 100 µM | > 100 µM | > 100 µM | > 100 µM | > 100 µM | > 100 µM | > 100 µM | 36 µM | > 100 µM | – | 58.1 µM | > 100 µM | > 100 µM | 37.6 µM | 58.8 µM | 95 µM | 38.8 µM
13 | COc1cc(SC)ccc1C(=O)N1CCCC(C)C1 (stereo not drawn) | > 100 µM | > 100 µM | – | > 100 µM | > 100 µM | > 100 µM | > 100 µM | > 100 µM | > 100 µM | > 100 µM | 58.7 µM | > 100 µM | – | > 100 µM | > 100 µM | 95.7 µM | > 100 µM | 70 µM | > 100 µM | > 100 µM
